Where a SMILES comes first, the peptide text is derived from it. The star is where a group is joined. pNA = O=[N+]([O-])c1ccc(N*)cc1; Cbz = O=C(OCc1ccccc1)*
Tests used:
Assay in all cases: Activity assay to determine kinetic constants
Format in all cases: biochemical
[1] = target: Atlantic cod (Gadus morhua) trypsin I (SEQ ID NO: 1) variant EZA-002, D217S, T218N, S69K (Gadus morhua, UniProt P16049, D236S/S88K/T237N)
Description: (§1) The following polypeptides were obtained or produced: • (a) Wldtype trypsin I purified from Atlantic cod (“WT-Tryp” or “wildtype”); • (b) Recombinantly expressed wildtype trypsin I of Atlantic cod (SEQ ID NO:1, “R-Tryp”); and • (c) Thirty-eight different mutated versions of trypsin I of Atlantic cod (i.e. mutated sequences of SEQ ID NO:1).
(§2) Polypeptides corresponding to the wildtype amino acid sequence of trypsin I from Atlantic cod and thirty-eight mutated versions thereof were produced using the methods described in Example C.
(§3) Activation of recombinant enzymes (approximately 0.01 mg/ml) was achieved by adding wild type trypsin (0.2 U/ml) at room temperature and incubate for 24 hours. The mixture was made in 20 mM Tris-HCl, 1 mM CaCl2, 50% glycerol, pH 8.0 to a final volume of 200 μl.
(§4) The substrate (Gly-Pro-Arg) was used at concentrations 0.005-0.15 mM in assay buffer containing 1% DMSO. 245 μL of substrate solutions were pipetted into a 96-well plate. The reaction was started by adding 5 μL of the sample mixture (above) and monitored at 410 nm in a SpectraMax plate reader. Kinetic measurement was performed every minute of a continuous 15-min run.

[2] = target: Atlantic cod (Gadus morhua) trypsin I (SEQ ID NO: 1) variant EZA-003, K133T (Gadus morhua, UniProt P16049, K152T)
Sequence of Atlantic cod (Gadus morhua) trypsin I (SEQ ID NO: 1) variant EZA-003, K133T (P16049 20-241 K152T): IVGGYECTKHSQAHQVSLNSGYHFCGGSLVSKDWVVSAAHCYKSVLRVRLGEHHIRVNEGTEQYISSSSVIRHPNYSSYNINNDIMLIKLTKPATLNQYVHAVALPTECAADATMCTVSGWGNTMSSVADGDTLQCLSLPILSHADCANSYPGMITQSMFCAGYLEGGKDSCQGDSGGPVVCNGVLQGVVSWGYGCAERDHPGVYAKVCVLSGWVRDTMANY
Description: as §1, §2, §3, §4

[3] = target: Atlantic cod (Gadus morhua) trypsin I (SEQ ID NO: 1) variant EZA-004, K133L (Gadus morhua, UniProt P16049, K152L)
Sequence of Atlantic cod (Gadus morhua) trypsin I (SEQ ID NO: 1) variant EZA-004, K133L (P16049 20-241 K152L): as the sequence (P16049 20-241 K152T) above, with T133L counted along it
Description: as §1, §2, §3, §4

[4] = target: Atlantic cod (Gadus morhua) trypsin I (SEQ ID NO: 1) variant EZA-005, K133V (Gadus morhua, UniProt P16049, K152V)
Sequence of Atlantic cod (Gadus morhua) trypsin I (SEQ ID NO: 1) variant EZA-005, K133V (P16049 20-241 K152V): as the sequence (P16049 20-241 K152T) above, with T133V counted along it
Description: as §1, §2, §3, §4

[5] = target: Atlantic cod (Gadus morhua) trypsin I (SEQ ID NO: 1) variant EZA-006, K133E (Gadus morhua, UniProt P16049, K152E)
Sequence of Atlantic cod (Gadus morhua) trypsin I (SEQ ID NO: 1) variant EZA-006, K133E (P16049 20-241 K152E): as the sequence (P16049 20-241 K152T) above, with T133E counted along it
Description: as §1, §2, §3, §4

[6] = target: Atlantic cod (Gadus morhua) trypsin I (SEQ ID NO: 1) variant EZA-007, N80T (Gadus morhua, UniProt P16049, N99T)
Sequence of Atlantic cod (Gadus morhua) trypsin I (SEQ ID NO: 1) variant EZA-007, N80T (P16049 20-241 N99T): as the sequence (P16049 20-241 K152T) above, with N80T, T133K counted along it
Description: as §1, §2, §3, §4

[7] = target: Atlantic cod (Gadus morhua) trypsin I (SEQ ID NO: 1) variant EZA-008, I81L (Gadus morhua, UniProt P16049, I100L)
Sequence of Atlantic cod (Gadus morhua) trypsin I (SEQ ID NO: 1) variant EZA-008, I81L (P16049 20-241 I100L): as the sequence (P16049 20-241 K152T) above, with I81L, T133K counted along it
Description: as §1, §2, §3, §4

[8] = target: Atlantic cod (Gadus morhua) trypsin I (SEQ ID NO: 1) variant EZA-009, L165G, P202Y (Gadus morhua, UniProt P16049, L184G/P221Y)
Sequence of Atlantic cod (Gadus morhua) trypsin I (SEQ ID NO: 1) variant EZA-009, L165G, P202Y (P16049 20-241 L184G/P221Y): as the sequence (P16049 20-241 K152T) above, with T133K, L165G, P202Y counted along it
Description: as §1, §2, §3, §4

[9] = target: T1, Atlantic cod (Gadus morhua) trypsin I, recombinant wildtype EZA-001 (no mutations), SEQ ID NO: 1 (Gadus morhua, UniProt P16049)
T1 construct: mature trypsin from MEEDK-zymogen
T1 sequence (P16049 20-241): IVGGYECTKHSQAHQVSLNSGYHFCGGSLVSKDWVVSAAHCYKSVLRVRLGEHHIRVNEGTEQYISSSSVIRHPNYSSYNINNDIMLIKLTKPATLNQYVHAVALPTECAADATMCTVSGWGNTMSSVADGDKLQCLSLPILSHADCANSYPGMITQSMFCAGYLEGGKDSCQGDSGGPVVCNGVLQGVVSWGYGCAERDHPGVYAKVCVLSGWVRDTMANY
Description: as §1, §2, §3, §4

[10] = target: T2, Atlantic cod (Gadus morhua) trypsin I, wildtype, purified from Atlantic cod (WT-Trp), SEQ ID NO: 1 (Gadus morhua, UniProt P16049); settings: reference
T2 sequence (P16049 20-241): T1 sequence (P16049 20-241)
Description: as §1, §2, §3, §4

Sequence of Atlantic cod (Gadus morhua) trypsin I (SEQ ID NO: 1) variant EZA-002, D217S, T218N, S69K (P16049 20-241 S88K/D236S/T237N): as the sequence (P16049 20-241 K152T) above, with S69K, T133K, D217S, T218N counted along it

N=C(N)NCCC[C@H](NC(=O)[C@@H]1CCCN1C(=O)CNC(=O)OCc1ccccc1)C(=O)Nc1ccc([N+](=O)[O-])cc1 [Gly-Pro-Arg, Cbz-Gly-Pro-Arg-p-nitroanilide] (Cbz-Gly-Pro-Arg-pNA)
Vmax, relative to WT-Trp [1]: 99 | Vmax, relative to WT-Trp [2]: 96 | Vmax, relative to WT-Trp [3]: 82 | Vmax, relative to WT-Trp [4]: 96 | Vmax, relative to WT-Trp [5]: 98 | Vmax, relative to WT-Trp [6]: 99 | Vmax, relative to WT-Trp [7]: 95 | Vmax, relative to WT-Trp [8]: 98 | Vmax, relative to WT-Trp [9]: 99 | Vmax (Kcat), relative to WT-Trp [10]: 100
